Laboratory results as given in patent publication US6043367A, “Proactive antitumor compounds” (priority 1998, dated 2000).

Legend:
[1] = test system: CaSki human cervical carcinoma cells; assay: in vitro cytotoxicity: [3H] leucine incorporation (protein synthesis) in CaSki cells
Method: One way to evaluate the in vitro cytotoxic activities of a proactive compound is by incubating the tested compound with cancerous cells in serum at 37° C. for a certain period of time. After incubation, the cells can be washed and pulsed with [^3 H] leucine in leucine-free medium for another period of time. The radioactivity of trichloroacetic acid-precipitated protein, an indication of the level of protein synthesis of the cell, can then be measured.
CaSki human cervical carcinoma cells were plated overnight in 96-well microtiter plates at 18,000 cells/well. Serial dilution of (i) compound 17 alone, (ii) compound 22 with β-glucuronidase, and (iii) compound 22 alone, in medium containing 5% fetal calf serum were added to cells for 96 hours at 37° C. Cells were subsequently washed once with sterile PBS, and then pulsed for 2 hours with [^3 H] leucine (1 μCi/well) in leucine-free medium. The radioactivity of trichloroacetic acid-precipitated protein was measured in a Beckman LS 6000 series liquid scintillation counter.

[2] = stability of the proactive compound in 95% human plasma at 37° C., HPLC; format: in vitro ADME; details: 145 μM (100 μg/ml), CO2 atmosphere, up to 48 hours, as compared with compound 23
Method: The stability of the proactive compound in serum can be evaluated by using high performance liquid chromatography (HPLC) analysis. […] Aliquots are taken out from the serum solution after every pre-designed period of time, e.g., every other hour. The proteins present in serum are precipitated, acidified, and dried under reduced pressure. The dried compound is dissolved in the HPLC buffer and then analyzed by HPLC.
(§1) 20 μl samples made from compounds 22 and 17 (moiety (3) of compound 22) were injected onto a Hypersil column (RP-18, 4.6×250 mm, 5 μm) with 45% methanol and 25 mM phosphate buffer (pH 2.5) as mobile phase at a flow rate of 1 ml/min. Eluted components were detected by fluorescence (excitation: 397 nm, emission: 482 nm) on a Gilson fluorometer. Peak areas were analyzed with Beckman system Gold software. The retention times for compound 17 and compound 22 were 9.5 and 15.8 minutes, respectively.

E. coli β-glucuronidase = E. coli β-glucuronidase (Escherichia coli, UniProt P05804); assay: cleavage of compound 22 by β-glucuronidase in βG buffer, HPLC; format: biochemical; details: E. coli β-glucuronidase 1 μg/ml, 37° C.
Sequence of E. coli β-glucuronidase (P05804 whole entry): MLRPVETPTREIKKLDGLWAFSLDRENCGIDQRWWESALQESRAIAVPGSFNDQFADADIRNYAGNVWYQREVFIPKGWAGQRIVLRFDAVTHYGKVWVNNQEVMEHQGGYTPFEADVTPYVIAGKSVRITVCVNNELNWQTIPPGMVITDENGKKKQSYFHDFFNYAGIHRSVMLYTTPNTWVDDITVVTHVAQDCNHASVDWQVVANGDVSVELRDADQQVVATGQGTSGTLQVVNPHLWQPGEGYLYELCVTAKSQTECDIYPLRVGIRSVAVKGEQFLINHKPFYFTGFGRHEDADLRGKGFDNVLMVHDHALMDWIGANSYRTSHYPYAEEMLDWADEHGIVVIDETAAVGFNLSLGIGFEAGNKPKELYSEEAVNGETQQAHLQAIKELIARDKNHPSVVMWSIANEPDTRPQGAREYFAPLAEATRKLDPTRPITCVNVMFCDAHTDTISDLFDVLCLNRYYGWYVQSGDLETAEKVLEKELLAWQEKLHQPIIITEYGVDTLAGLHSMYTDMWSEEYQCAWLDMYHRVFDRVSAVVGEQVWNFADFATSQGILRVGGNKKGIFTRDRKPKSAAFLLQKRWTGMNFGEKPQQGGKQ
Method: The proactive compound can also be tested as to its ability to be cleaved by β-glucuronidase. Specifically, the enzyme and the tested compound are both added to […]. Aliquots are then taken out and evaluated in a similar fashion as described above.
as §1
500 μl of compound 22 (116 μM) in βG buffer (100 mM acetic acid, 50 mM bis-tris, 50 mM triethanolamine, pH 7.0) was incubated with E. coli β-glucuronidase (1 μg/ml) at 37° C. Aliquots (30 μl) withdrawn after 0, 1, 2, 3, and 5 minutes was mixed with 300 μl of ethyl acetate, and acidified by addition of 12 mM phosphoric acid (270 μl). […] The recovery of compounds 22 and 17 from βG buffer […] were about 90% and 80%, respectively. Samples were suspended in 150 μl of mobile phase (45% methanol/25 mM phosphate buffer, pH 2.5) and analyzed by HPLC.

SMILES: CC[C@@]1(O)C(=O)OCc2c1cc1n(c2=O)Cc2cc3c(NC(=O)OCc4ccc(O[C@@H]5O[C@H](C(=O)O)[C@@H](O)[C@H](O)[C@H]5O)cc4)cccc3nc2-1 [Compound 22]
- cytotoxicity relative to compound 17 ([1]; compound alone (no β-glucuronidase)): much less cytotoxic than compound 17
- change of level of protein synthesis ([1]; compound alone (no β-glucuronidase), 100 nM, 96 hours, 37° C., 5% fetal calf serum): did not change
- cytotoxicity relative to compound 17 ([1]; upon activation by glucuronidase): almost as cytotoxic as compound 17
- decrease of level of protein synthesis ([1]; with β-glucuronidase, 100 nM, 96 hours, 37° C., 5% fetal calf serum): ~4 fold
- half life in serum [2]: surprisingly long half life in serum
- conversion into moiety (3) upon activation by glucuronidase (E. coli β-glucuronidase): converted into its moiety (3), i.e., compound 17
- absorbance of compound 22 after incubation with β-glucuronidase (E. coli β-glucuronidase; after 3 minutes, compound 22 116 μM, βG buffer pH 7.0): almost undetectable

SMILES: CC[C@@]1(O)C(=O)OCc2c1cc1n(c2=O)Cc2cc3c(N)cccc3nc2-1 [Compound 17, reference compound]
- decrease of level of protein synthesis ([1]; compound alone, 100 nM, 96 hours, 37° C., 5% fetal calf serum): ~4 fold
- absorbance of compound 17 released from compound 22 by β-glucuronidase (E. coli β-glucuronidase; 0-5 minutes, compound 22 116 μM, βG buffer pH 7.0): increased in the first three minutes and reached a steady level after the third minute
